# Assay results: patent US11052087B2, “Anti-HIV compounds” (priority 2018, dated 2021)
# Read-outs that look alike come from different tables or passages of the source.
# Tests used:
# [1] = system: HIV-1 (IIIB) in MT-4 cells; assay: MT-4 HIV Assay; assay type: cell-based
# Experimental: Compounds were tested in a high-throughput 384-well assay format for their ability to inhibit the replication of HIV-1 (IIIB) in MT-4 cells. Compounds were serially diluted (1:3) in DMSO on 384-well polypropylene plates and further diluted 200-fold into complete RPMI media (10% FBS, 1% P/S) using the Biotek Micro Flow and Agilent ECHO acoustic dispenser. Each plate contained up to 8 test compounds, with negative (No Drug Control) and 5 μM AZT positive controls. MT-4 cells were pre-infected with 10 μL of either RPMI (mock-infected) or a fresh 1:250 dilution of an HIV-1 (IIIB) concentrated virus stock. Infected and uninfected MT-4 cells were further diluted in complete RPMI media and added to each plate using a Micro Flow dispenser. After 5 days incubation in a humidified and temperature controlled incubator (37° C.), Cell Titer Glo (Promega) was added to the assay plates to quantify the amount of luciferase. EC50 values were defined as the compound concentration that causes a 50% decrease in luminescence signal, and were calculated using a sigmoidal dose-response model to generate curve fits.
# [2] = Kinetic Solubility Analysis (CLND); assay type: physicochemical; conditions: 26 °C, kinetic from dmso stock
# Experimental: Kinetic Solubility Analysis (CLND) Buffer Preparation:
# 0.1N HCl: Hydrochloric acid, 0.1N standardized solution.
# 1×PBS, 7.4: Phosphate Buffered Saline solution 10×, PBS 50 mL was added to approximately 450 mL HPLC grade H2O. The volume of the solution was then adjusted to 500 mL for a total dilution factor of 1:10 and a final PBS concentration of IX.
# Kinetic Solubility from DMSO Stocks:
# The final DMSO concentration is 1.0% and maximum theoretical compound concentration is 100 μM (assuming stock concentration of 10 mM). The filter plate was sealed. […] The collection plate was sealed for analysis. Filtrates were injected into the nitrogen detector for quantification.
# The equimolar nitrogen response of the detector was calibrated using standards which spanned the dynamic range of the instrument from […] nitrogen. The filtrates were quantified with respect to this calibration curve. The calculated solubility values were corrected for background nitrogen present in the DMSO and the media used to prepare the samples.
# [3] = Liver microsomal stability (rat); assay type: in vitro ADME; conditions: rat liver microsomes 0.5 mg/mL, 1 μM compound, NADPH-regenerating system, 37° C.
# Experimental: (§1) Liver Microsomal Stability Protocol
# (§2) Test compounds and one control compound (verapamil) were tested in 3 different species in duplicate sets.
# (§3) Test compound concentration: 1 μM; Protein concentration: 0.5 mg/mL (for rat and human liver microsomes); Cofactor: NADPH-Regenerating system (NRS) solution. Time-points: 2, 12, 25, 45, and 65 minutes.
# (§4) Reaction composition (in each incubation well) contains:
# (§5) At an incubation temperature of 37° C., the reaction was started with addition of NADPH Regeneration System, at each time point, 25 μL of the reaction mixture was removed and added to a plate with 225 μL quenching solution (50% MeOH, 25% ACN, 25% H2O, and 200 nM labetalol as internal standard). After plates were vortexed, they were centrifuged for 30 minutes to remove proteins. About 100 μL supernatant was removed to a new plate and diluted with 150 μL water. About 20 μL of the mixture was injected into an LC/MS/MS system to monitor the compound's response. In vitro measured t1/2 was used to calculate Clint values.
# [4] = Liver microsomal stability (human); assay type: in vitro ADME; conditions: human liver microsomes 0.5 mg/mL, 1 μM compound, NADPH-regenerating system, 37° C.
# Experimental: as §1, §2, §3, §4, §5
# [5] = Human immunodeficiency virus 1, MT4, 120 h, HIV-1 (IIIB) replication in MT-4 cells, 5 days incubation, Cell Titer Glo, read-out: EC50
# [6] = 0.1N HCl, pH 1, simulated gastric fluid, read-out: Solubility, HCl, pH 1.0, RT
# [7] = PBS, pH 7.4, aqueous buffer, read-out: Solubility, PBS, pH 7.4, RT
Structure (SMILES),"EC50 [1, 5] [nM]","solubility at 24 h [2, 6] [µM]","solubility at 24 h [2, 7] [µM]","EC50 ([1]; Human immunodeficiency virus 1, IIIB, MT4, 120 h) [nM]",Rat. Pred. Cl. (L/H/kg) [3] [L/H/kg],Human Pred Cl. (L/H/kg) [4] [L/H/kg]
"COC(=O)N[C@H](C(=O)N[C@@H](Cc1ccc(C#Cc2cnc(N3CC4CCC(C3)N4C3COC3)nc2)cc1)[C@H](CN(Cc1c(F)cc(-c2ccn(C(F)F)n2)cc1F)NC(=O)[C@@H](NC(=O)OC)C(C)(C)C(F)(F)F)OC(C)=O)C(C)(C)C(F)(F)F [Example 3, (5S,10S,11S,14S)-8-(4-(1-(difluoromethyl)-1H-pyrazol-3-yl)-2,6-difluorobenzyl)-11-(4-((2-(8-(oxetan-3-yl)-3,8-diazabicyclo[3.2.1]octan-3-yl)pyrimidin-5-yl)ethynyl)benzyl)-3,6,13,16-tetraoxo-5,14-bis(1,1,1-trifluoro-2-methylpropan-2-yl)-2,17-dioxa-4,7,8,12,15-pentaazaoctadecan-10-yl acetate]",603,25.2,< 1,–,–,–
"COC(=O)N[C@H](C(=O)N[C@@H](Cc1ccc(C#Cc2cnc(N3CC4CCC(C3)N4C3COC3)nc2)cc1)[C@H](CN(Cc1c(F)cc(-c2ccn(C(F)F)n2)cc1F)NC(=O)[C@@H](NC(=O)OC)C(C)(C)C(F)(F)F)OC(=O)[C@H](C(C)C)N(C)C)C(C)(C)C(F)(F)F [Example 4, (2S,3S)-1-(1-(4-(1-(difluoromethyl)-1H-pyrazol-3-yl)-2,6-difluorobenzyl)-2-((S)-4,4,4-trifluoro-2-((methoxycarbonyl)amino)-3,3-dimethylbutanoyl)hydrazinyl)-4-(4-((2-(8-(oxetan-3-yl)-3,8-diazabicyclo[3.2.1]octan-3-yl)pyrimidin-5-yl)ethynyl)phenyl)-3-((S)-4,4,4-trifluoro-2-((methoxycarbonyl)amino)-3,3-dimethylbutanamido)butan-2-yl dimethyl-L-valinate]",5710,99.2,< 1,–,–,–
"COC(=O)N[C@H](C(=O)N[C@@H](Cc1ccc(C#Cc2cnc(N3CC4CCC(C3)N4C3COC3)nc2)cc1)[C@H](CN(Cc1c(F)cc(-c2ccn(C(F)F)n2)cc1F)NC(=O)[C@@H](NC(=O)OC)C(C)(C)C(F)(F)F)OC(=O)CCC[N+](C)(C)C)C(C)(C)C(F)(F)F [Example 7, (5S,10S)-8-(4-(1-(difluoromethyl)-1H-pyrazol-3-yl)-2,6-difluorobenzyl)-N,N,N-trimethyl-10-((1 S)-2-(4-((2-(8-(oxetan-3-yl)-3,8-diazabicyclo[3.2.1]octan-3-yl)pyrimidin-5-yl)ethynyl)phenyl)-1-((S)-4,4,4-trifluoro-2-((methoxycarbonyl)amino)-3,3-dimethylbutanamido)ethyl)-3,6,2-trioxo-5-(1,1,1-trifluoro-2-methylpropan-2-yl)-2,11-dioxa-4,7,8-triazapentadecan-15-aminium 2,2,2-trifluoroacetate]",–,–,–,247,–,–
"COC(=O)N[C@H](C(=O)N[C@@H](Cc1ccc(C#Cc2cnc(N3CC4CCC(C3)N4C3COC3)nc2)cc1)[C@H](CN(Cc1c(F)cc(-c2ccn(C(F)F)n2)cc1F)NC(=O)[C@@H](NC(=O)OC)C(C)(C)C(F)(F)F)OC(=O)[C@@H](N)C(C)C)C(C)(C)C(F)(F)F [Example 8, (2S,3S)-1-(1-(4-(1-(difluoromethyl)-1H-pyrazol-3-yl)-2,6-difluorobenzyl)-2-((S)-4,4,4-trifluoro-2-((methoxycarbonyl)amino)-3,3-dimethylbutanoyl)hydrazinyl)-4-(4-((2-(8-(oxetan-3-yl)-3,8-diazabicyclo[3.2.1]octan-3-yl)pyrimidin-5-yl)ethynyl)phenyl)-3-((S)-4,4,4-trifluoro-2-((methoxycarbonyl)amino)-3,3-dimethylbutanamido)butan-2-yl L-valinate]",102,90,< 1,–,–,–
"COC(=O)N[C@H](C(=O)N[C@@H](Cc1ccc(C#Cc2cnc(N3CC4CCC(C3)N4C3COC3)nc2)cc1)[C@H](CN(Cc1c(F)cc(-c2ccn(C(F)F)n2)cc1F)NC(=O)[C@@H](NC(=O)OC)C(C)(C)C(F)(F)F)OC(=O)[C@@H](N)CCCCN)C(C)(C)C(F)(F)F [Example 9, (2S,3S)-1-(1-(4-(1-(difluoromethyl)-1H-pyrazol-3-yl)-2,6-difluorobenzyl)-2-((S)-4,4,4-trifluoro-2-((methoxycarbonyl)amino)-3,3-dimethylbutanoyl)hydrazinyl)-4-(4-((2-(8-(oxetan-3-yl)-3,8-diazabicyclo[3.2.1]octan-3-yl)pyrimidin-5-yl)ethynyl)phenyl)-3-((S)-4,4,4-trifluoro-2-((methoxycarbonyl)amino)-3,3-dimethylbutanamido)butan-2-yl L-lysinate]",20.6,86.8,6.8,–,–,–
"COC(=O)N[C@H](C(=O)N[C@@H](Cc1ccc(C#Cc2cnc(N3CC4CCC(C3)N4C3COC3)nc2)cc1)[C@H](CN(Cc1c(F)cc(-c2ccn(C(F)F)n2)cc1F)NC(=O)[C@@H](NC(=O)OC)C(C)(C)C(F)(F)F)OC(=O)CN(C)C)C(C)(C)C(F)(F)F [Example 10, (2S,3S)-1-(1-(4-(1-(difluoromethyl)-1H-pyrazol-3-yl)-2,6-difluorobenzyl)-2-((S)-4,4,4-trifluoro-2-((methoxycarbonyl)amino)-3,3-dimethylbutanoyl)hydrazinyl)-4-(4-((2-(8-(oxetan-3-yl)-3,8-diazabicyclo[3.2.1]octan-3-yl)pyrimidin-5-yl)ethynyl)phenyl)-3-((S)-4,4,4-trifluoro-2-((methoxycarbonyl)amino)-3,3-dimethylbutanamido)butan-2-yl dimethylglycinate]",–,79.3,< 1,–,–,–
"COC(=O)N[C@H](C(=O)N[C@@H](Cc1ccc(C#Cc2cnc(N3CC4CCC(C3)N4C3COC3)nc2)cc1)[C@H](CN(Cc1c(F)cc(-c2ccn(C(F)F)n2)cc1F)NC(=O)[C@@H](NC(=O)OC)C(C)(C)C(F)(F)F)OP(=O)(O)O)C(C)(C)C(F)(F)F [Example 12, methyl ((5S,10S,11S,14S)-8-(4-(1-(difluoromethyl)-1H-pyrazol-3-yl)-2,6-difluorobenzyl)-16,16,16-trifluoro-15,15-dimethyl-11-(4-((2-(8-(oxetan-3-yl)-3,8-diazabicyclo[3.2.1]octan-3-yl)pyrimidin-5-yl)ethynyl)benzyl)-3,6,13-trioxo-10-(phosphonooxy)-5-(1,1,1-trifluoro-2-methylpropan-2-yl)-2-oxa-4,7,8,12-tetraazahexadecan-14-yl)carbamate]",–,13.1,84.6,–,0.91,0.47
"COC(=O)N[C@H](C(=O)N[C@@H](Cc1ccc(C#Cc2ccc(N3CC4CCC(C3)N4C3COC3)nc2)cc1)[C@H](CN(Cc1c(F)cc(-c2ccn(C(F)F)n2)cc1F)NC(=O)[C@@H](NC(=O)OC)C(C)(C)C(F)(F)F)OC(=O)OCOP(=O)(O)O)C(C)(C)C(F)(F)F [Example 13, methyl ((5S,10S,11S,14S)-8-(4-(1-(difluoromethyl)-1H-pyrazol-3-yl)-2,6-difluorobenzyl)-16,16,16-trifluoro-15,15-dimethyl-11-(4-((6-(8-(oxetan-3-yl)-3,8-diazabicyclo[3.2.1]octan-3-yl)pyridin-3-yl)ethynyl)benzyl)-3,6,13-trioxo-10-((((phosphonooxy)methoxy)carbonyl)oxy)-5-(1,1,1-trifluoro-2-methylpropan-2-yl)-2-oxa-4,7,8,12-tetraazahexadecan-14-yl)carbamate]",–,67.4,< 1,–,–,–
